From patent US5292733A, “Cephalosporin compounds” (Lucky Limited, priority 1991, dated 1994)
In brackets after ≈: the same amount, converted by molar mass.

Legend:
Assay in all cases: Antibacterial activity MIC, two-fold agar dilution
Type in all cases: cell-based
[1] = tested on: Morganella morganii ATCC 8076h; settings: Muller-Hinton agar, 37° C., 20 hours; for MIC: ATCC8076H
Method in brief: (§1)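 Compounds were serially diluted two-fold in Muller-Hinton agar, and each plate was spot-inoculated with 2 μl of test strain suspension at 10^7 CFU per ml. Plates were incubated at 37° C. for 20 hours before the MIC was recorded.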

[2] = tested on: Salmonella typhimurium ATCC 14028; settings: Salmonella typhimurium ATCC 14028, Muller-Hinton agar, 37° C., 20 hours; for MIC: Salmonella enterica, read-out: Antibacterial Activity MIC
Method in brief: as §1

[3] = tested on: Escherichia coli ATCC 10536; settings: 37° C., 20 hours; for MIC: ATCC10536, Muller-Hinton agar; for Antibacterial Activity MIC: Muller-Hinton agar
Method in brief: as §1

[4] = tested on: Providencia rettgeri ATCC 9250; settings: 37° C., 20 hours; for MIC: ATCC9250, Muller-Hinton agar; for Antibacterial Activity MIC: Muller-Hinton agar
Method in brief: as §1

[5] = tested on: Bacillus megaterium ATCC 9885; settings: Bacillus megaterium ATCC 9885, Muller-Hinton agar, 37° C., 20 hours; for MIC: Priestia megaterium, ATCC9885, read-out: Antibacterial Activity MIC
Method in brief: as §1

[6] = tested on: Escherichia coli ATCC 25922; settings: 37° C., 20 hours; for MIC: ATCC25922, Muller-Hinton agar; for Antibacterial Activity MIC: Muller-Hinton agar
Method in brief: as §1

[7] = tested on: Pseudomonas aeruginosa ATCC 27853; settings: Pseudomonas aeruginosa ATCC 27853, Muller-Hinton agar, 37° C., 20 hours; for MIC: ATCC27853, read-out: Antibacterial Activity MIC
Method in brief: as §1

[8] = tested on: Serratia marcescens ATCC 27117; settings: Serratia marcescens ATCC 27117, Muller-Hinton agar, 37° C., 20 hours; for MIC: ATCC27117, read-out: Antibacterial Activity MIC
Method in brief: as §1

[9] = tested on: Enterobacter cloacae ATCC 27508; settings: Enterobacter cloacae ATCC 27508, Muller-Hinton agar, 37° C., 20 hours; for MIC: ATCC27508, read-out: Antibacterial Activity MIC
Method in brief: as §1

[10] = tested on: Staphylococcus aureus ATCC 10537; settings: Staphylococcus aureus ATCC 10537, Muller-Hinton agar, 37° C., 20 hours; for MIC: ATCC10537, read-out: Antibacterial Activity MIC
Method in brief: as §1

[11] = tested on: Staphylococcus aureus ATCC 6538p; settings: Staphylococcus aureus ATCC 6538p, Muller-Hinton agar, 37° C., 20 hours; for MIC: ATCC6538P, read-out: Antibacterial Activity MIC
Method in brief: as §1

[12] = tested on: Proteus mirabilis ATCC 25933; settings: Proteus mirabilis ATCC 25933, Muller-Hinton agar, 37° C., 20 hours; for MIC: ATCC25933, read-out: Antibacterial Activity MIC
Method in brief: as §1

[13] = tested on: Pseudomonas aeruginosa ATCC 10145; settings: Pseudomonas aeruginosa ATCC 10145, Muller-Hinton agar, 37° C., 20 hours; for MIC: ATCC10145, read-out: Antibacterial Activity MIC
Method in brief: as §1

[14] = tested on: Citrobacter freundii ATCC 8090; settings: Citrobacter freundii ATCC 8090, Muller-Hinton agar, 37° C., 20 hours; for MIC: ATCC8090, read-out: Antibacterial Activity MIC
Method in brief: as §1

[15] = tested on: Bacillus cereus ATCC 11778; settings: Bacillus cereus ATCC 11778, Muller-Hinton agar, 37° C., 20 hours; for MIC: ATCC11778, read-out: Antibacterial Activity MIC
Method in brief: as §1

[16] = tested on: Proteus vulgaris ATCC 6059; settings: Proteus vulgaris ATCC 6059, Muller-Hinton agar, 37° C., 20 hours; for MIC: ATCC6059, read-out: Antibacterial Activity MIC
Method in brief: as §1

[17] = tested on: Pseudomonas aeruginosa ATCC 25619; settings: Pseudomonas aeruginosa ATCC 25619, Muller-Hinton agar, 37° C., 20 hours; for MIC: ATCC25619, read-out: Antibacterial Activity MIC
Method in brief: as §1

[18] = tested on: Klebsiella pneumoniae ATCC 10031; settings: Klebsiella pneumoniae ATCC 10031, Muller-Hinton agar, 37° C., 20 hours; for MIC: ATCC10031, read-out: Antibacterial Activity MIC
Method in brief: as §1

[19] = tested on: Streptococcus faecalis ATCC 29212; settings: Streptococcus faecalis ATCC 29212, Muller-Hinton agar, 37° C., 20 hours; for MIC: Enterococcus faecalis, ATCC29212, read-out: Antibacterial Activity MIC
Method in brief: as §1

[20] = tested on: Micrococcus luteus ATCC 9341; settings: Micrococcus luteus ATCC 9341, Muller-Hinton agar, 37° C., 20 hours; for MIC: ATCC9341, read-out: Antibacterial Activity MIC
Method in brief: as §1

[21] = tested on: Enterobacter aerogenes ATCC 29751; settings: Enterobacter aerogenes ATCC 29751, Muller-Hinton agar, 37° C., 20 hours; for MIC: Klebsiella aerogenes, ATCC29751, read-out: Antibacterial Activity MIC
Method in brief: as §1

[22] = tested on: Acinetobacter calcoaceticus ATCC 15473; settings: Acinetobacter calcoaceticus ATCC 15473, Muller-Hinton agar, 37° C., 20 hours; for MIC: ATCC15473, read-out: Antibacterial Activity MIC
Method in brief: as §1

[23] = tested on: Shigella flexneri ATCC 11836; settings: 37° C., 20 hours; for MIC: ATCC11836, Muller-Hinton agar; for Antibacterial Activity MIC: Muller-Hinton agar
Method in brief: as §1

[24] = tested on: Staphylococcus epidermidis ATCC 12228; settings: Staphylococcus epidermidis ATCC 12228, Muller-Hinton agar, 37° C., 20 hours; for MIC: ATCC12228, read-out: Antibacterial Activity MIC
Method in brief: as §1

[25] = tested on: Shigella sonnei ATCC 11060; settings: 37° C., 20 hours; for MIC: ATCC11060, Muller-Hinton agar; for Antibacterial Activity MIC: Muller-Hinton agar
Method in brief: as §1

## CC[n+]1c(N)nc(N)nc1SCC1=C(C(=O)[O-])N2C(=O)C(NC(=O)/C(=N\OC(C)(C)C(=O)O)c3csc(N)n3)[C@H]2SC1 (stereo partly shown) [Compound I-24, 7-[(Z)-2-(2-aminothiazol-4-yl) -2-(2-carboxyprop-2-oxyimino)acetamido]-3-(4,6-diamino-1-ethyl-1,3,5-triazinium-2-yl)thiomethyl-3-cephem-4-carboxylate]
[1]
  MIC: ≤ 0.008 µg/mL
[2]
  MIC: 0.13 µg/mL (≈ 0.204 µM)
[3]
  MIC: 0.13 µg/mL (≈ 0.204 µM)
[4]
  MIC: ≤ 0.008 µg/mL
[5]
  MIC: 0.5 µg/mL (≈ 0.783 µM)
[6]
  MIC: 0.063 µg/mL (≈ 0.0986 µM)
[7]
  MIC: 1 µg/mL (≈ 1.57 µM)
[8]
  MIC: 0.13 µg/mL (≈ 0.204 µM)
[9]
  MIC: 0.031 µg/mL (≈ 0.0485 µM)
[10]
  MIC: 2 µg/mL (≈ 3.13 µM)
[11]
  MIC: 4 µg/mL (≈ 6.26 µM)
[12]
  MIC: 0.063 µg/mL (≈ 0.0986 µM)
[13]
  MIC: 2 µg/mL (≈ 3.13 µM)
[14]
  MIC: 0.13 µg/mL (≈ 0.204 µM)
[15]
  MIC: > 128 µg/mL
[16]
  MIC: 0.063 µg/mL (≈ 0.0986 µM)
[17]
  MIC: 1 µg/mL (≈ 1.57 µM)
[18]
  MIC: 0.063 µg/mL (≈ 0.0986 µM)
[19]
  MIC: > 128 µg/mL
[20]
  MIC: 1 µg/mL (≈ 1.57 µM)
[21]
  MIC: 2 µg/mL (≈ 3.13 µM)
[22]
  MIC: 4 µg/mL (≈ 6.26 µM)
[23]
  MIC: 0.063 µg/mL (≈ 0.0986 µM)
[24]
  MIC: 2 µg/mL (≈ 3.13 µM)
[25]
  MIC: 0.063 µg/mL (≈ 0.0986 µM)

## CC(C)(O/N=C(\C(=O)NC1C(=O)N2C(C(=O)[O-])=C(CSc3nc(N)nc(N)[n+]3-c3ccccc3)CS[C@H]12)c1csc(N)n1)C(=O)O (stereo partly shown) [Compound I-25, 7-[(Z)-2-(2-aminothiazol-4-yl) -2-(2-carboxyprop-2-oxyimino)acetamido]-3-(4,6-diamino-1-phenyl-1,3,5-triazinium-2-yl)thiomethyl-3-cephem-4-carboxylate]
[1]
  MIC: ≤ 0.008 µg/mL
[2]
  MIC: 0.25 µg/mL (≈ 0.364 µM)
[3]
  MIC: 0.13 µg/mL (≈ 0.189 µM)
[4]
  MIC: ≤ 0.008 µg/mL
[5]
  MIC: 0.5 µg/mL (≈ 0.728 µM)
[6]
  MIC: 0.25 µg/mL (≈ 0.364 µM)
[7]
  MIC: 2 µg/mL (≈ 2.91 µM)
[8]
  MIC: 0.13 µg/mL (≈ 0.189 µM)
[9]
  MIC: 0.13 µg/mL (≈ 0.189 µM)
[10]
  MIC: 4 µg/mL (≈ 5.82 µM)
[11]
  MIC: 4 µg/mL (≈ 5.82 µM)
[12]
  MIC: 0.13 µg/mL (≈ 0.189 µM)
[13]
  MIC: 4 µg/mL (≈ 5.82 µM)
[14]
  MIC: 0.5 µg/mL (≈ 0.728 µM)
[15]
  MIC: 128 µg/mL (≈ 186 µM)
[16]
  MIC: 0.13 µg/mL (≈ 0.189 µM)
[17]
  MIC: 1 µg/mL (≈ 1.46 µM)
[18]
  MIC: 0.25 µg/mL (≈ 0.364 µM)
[19]
  MIC: > 128 µg/mL
[20]
  MIC: 0.5 µg/mL (≈ 0.728 µM)
[21]
  MIC: 2 µg/mL (≈ 2.91 µM)
[22]
  MIC: 16 µg/mL (≈ 23.3 µM)
[23]
  MIC: 0.13 µg/mL (≈ 0.189 µM)
[24]
  MIC: 4 µg/mL (≈ 5.82 µM)
[25]
  MIC: 0.25 µg/mL (≈ 0.364 µM)

## (6R,7R)-7-[(Z)-2-(2-aminothiazol-4-yl)-2-(2-propyn-1-oxyimino)acetamido]-3-(2,6-diamino-3-methylpyrimidinium-4-yl)thiomethyl-3-cephem-4-carboxylate [Compound I-9]
[1]
  Antibacterial Activity MIC: <= 0.008 μg/ml
[2]
  Antibacterial Activity MIC: 0.5 µg/mL
[3]
  Antibacterial Activity MIC: 0.016 µg/mL
[4]
  Antibacterial Activity MIC: <= 0.008 μg/ml
[5]
  Antibacterial Activity MIC: 0.13 µg/mL
[6]
  Antibacterial Activity MIC: 0.063 µg/mL
[7]
  Antibacterial Activity MIC: 8 µg/mL
[8]
  Antibacterial Activity MIC: 0.5 µg/mL
[9]
  Antibacterial Activity MIC: 0.13 µg/mL
[10]
  Antibacterial Activity MIC: 0.25 µg/mL
[11]
  Antibacterial Activity MIC: 0.25 µg/mL
[12]
  Antibacterial Activity MIC: 0.016 µg/mL
[13]
  Antibacterial Activity MIC: 16 µg/mL
[14]
  Antibacterial Activity MIC: 0.13 µg/mL
[15]
  Antibacterial Activity MIC: 64 µg/mL
[16]
  Antibacterial Activity MIC: 0.016 µg/mL
[17]
  Antibacterial Activity MIC: 2 µg/mL
[18]
  Antibacterial Activity MIC: 0.063 µg/mL
[19]
  Antibacterial Activity MIC: > 128 µg/mL
[20]
  Antibacterial Activity MIC: 0.063 µg/mL
[21]
  Antibacterial Activity MIC: 0.5 µg/mL
[22]
  Antibacterial Activity MIC: 2 µg/mL
[23]
  Antibacterial Activity MIC: 0.13 µg/mL
[24]
  Antibacterial Activity MIC: 0.5 µg/mL
[25]
  Antibacterial Activity MIC: 0.13 µg/mL

## (6R,7R)-7-[(Z)-2-(5-aminothiazol-4-yl)-2-(2-propyn-1-oxyimino)acetamido]-3-(2,6-diamino-1-methylpyrimidinium-4-yl)thiomethyl-3-cephem-4-carboxylate [Compound I-16]
[1]
  Antibacterial Activity MIC: 0.016 µg/mL
[2]
  Antibacterial Activity MIC: 1 µg/mL
[3]
  Antibacterial Activity MIC: 0.5 µg/mL
[4]
  Antibacterial Activity MIC: <= 0.008 μg/ml
[5]
  Antibacterial Activity MIC: 0.25 µg/mL
[6]
  Antibacterial Activity MIC: 0.5 µg/mL
[7]
  Antibacterial Activity MIC: 4 µg/mL
[8]
  Antibacterial Activity MIC: 2 µg/mL
[9]
  Antibacterial Activity MIC: 0.063 µg/mL
[10]
  Antibacterial Activity MIC: 0.5 µg/mL
[11]
  Antibacterial Activity MIC: 0.5 µg/mL
[12]
  Antibacterial Activity MIC: 1 µg/mL
[13]
  Antibacterial Activity MIC: 8 µg/mL
[14]
  Antibacterial Activity MIC: 0.25 µg/mL
[15]
  Antibacterial Activity MIC: 64 µg/mL
[16]
  Antibacterial Activity MIC: 1 µg/mL
[17]
  Antibacterial Activity MIC: 2 µg/mL
[18]
  Antibacterial Activity MIC: 0.016 µg/mL
[19]
  Antibacterial Activity MIC: 32 µg/mL
[20]
  Antibacterial Activity MIC: 0.031 µg/mL
[21]
  Antibacterial Activity MIC: 1 µg/mL
[22]
  Antibacterial Activity MIC: 8 µg/mL
[23]
  Antibacterial Activity MIC: 0.25 µg/mL
[24]
  Antibacterial Activity MIC: 0.25 µg/mL
[25]
  Antibacterial Activity MIC: 0.5 µg/mL
